“And” between values parts separate entries of the source, which are not always exact repeats. Equal entries are not always repeated.
Assays:
[1] = Metabolic stability assay in mouse liver microsomes; type: in vitro ADME; conditions: for half-life at 2 μM: read-out: t1/2, min MLM
Protocol: (§1) 2d) Metabolic stability assay in liver microsomes. […]
(§2) The reactions are terminated by adding equivalent
(§3) volume of ice-cold CH3OH and vortexed.
(§4) temperature was ma i ntained at 40 °C.
(§5) (acetonitrile containing 0.1% formic acid). […]

[2] = Metabolic stability assay in human liver microsomes; type: in vitro ADME; conditions: for half-life at 2 μM: read-out: t1/2, min HLM
Protocol: as §1, §2, §3, §4, §5

[3] = tested on: various bromodomains; test: BROMOscan bromodomain profiling on various bromodomains; type: binding; conditions: result in words
Protocol: 2a) Bromodomain proximity assay. The AlphaScreenTM assay was performed following previous […]
The plate was read on a Tecan Infinite […]
the protein thermal shift assay.
Orange dye at 5 × in a 10- µL reaction.
Lightcycler 480 real-time PCR instrument.
2c) NanoBRET target engagement intracellular BET bromodomain assay. The NanoLuc -BRDT-BD1 […]
(Promega, USA) to replace the corresponding BRD4 bromodomain sequences. The NanoBRET tracer […]
The cells were then preincubated with tested
2d) Metabolic stability assay in liver microsomes. Compounds 3–10, 15, 17 and 20–2 2 (2.0 μM) were incubated in the mouse or human liver microsomes (0.5 mg protein/mL) at 37 °C. The samples are collected […]
The reactions are terminated by adding equivalent volume of ice-cold CH3OH and vortexed. […]
as §4
(acetonitrile containing 0.1% formic acid).
2e) BROMOscan bromodomain profiling. BROMOscan bromodomain profiling was provided by […]
against a proprietary reference immobilized ligand.

[4] = target: BRDT-BD2
[5] = target: BRDT-BD1
[6] = target: BRD4-BD2
[7] = target: BRD4-BD1
[8] = target: BRD2-BD2
[9] = target: BRD3-BD2
[10] = target: BRD4-BD2; remark: listed apart in the source
[11] = target: BRDT-BD2; remark: listed apart in the source
[12] = target: T1, BRDT-BD1 (Homo sapiens, UniProt Q58F21); test: AlphaScreen competition assay with biotinylated JQ1, BRDT-BD1; type: binding; conditions: AlphaScreen, biotinylated JQ1 as ligand; NE: no effect at 20 µM
T1 construct: NP_001717.3 amino acid 21− 137; made in house; host or cells: E. coli NiCo21 (DE3)

[13] = target: T2, BRD4-BD1 (Homo sapiens, UniProt O60885); test: AlphaScreen competition assay with biotinylated JQ1, BRD4-BD1; type: binding; conditions: AlphaScreen, biotinylated JQ1 as ligand; NE: no effect at 20 µM
T2 construct: amino acid 44− 168; made in house; host or cells: E. coli NiCo21 (DE3)

[14] = target: T3, BRD2-BD2 (Homo sapiens, UniProt P25440); test: BROMOscan BromoKdELECT competition binding, BRD2-BD2; conditions: BromoKdELECT dose-response; read-out: Binding Constants (Kd), nM BRD2-BD2
T3 construct: purchased Eurofins DiscoverX Corp
T3 sequence (P25440 344-453 limits assumed): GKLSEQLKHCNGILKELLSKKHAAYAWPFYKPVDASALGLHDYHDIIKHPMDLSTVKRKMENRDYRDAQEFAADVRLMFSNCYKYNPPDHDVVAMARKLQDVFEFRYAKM

[15] = target: T4, BRD3-BD2 (Homo sapiens, UniProt Q15059); test: BROMOscan BromoKdELECT competition binding, BRD3-BD2; conditions: BromoKdELECT dose-response; read-out: Binding Constants (Kd), nM BRD3-BD2
T4 construct: purchased Eurofins DiscoverX Corp
T4 sequence (Q15059 306-415 limits assumed): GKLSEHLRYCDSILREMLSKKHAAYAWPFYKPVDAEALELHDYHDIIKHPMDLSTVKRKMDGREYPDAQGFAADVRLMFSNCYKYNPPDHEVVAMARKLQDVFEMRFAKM

[16] = target: T5, BRD4-BD2 (Homo sapiens, UniProt O60885); test: BROMOscan BromoKdELECT competition binding, BRD4-BD2; parameters: purchased Eurofins DiscoverX Corp; conditions: BromoKdELECT dose-response; read-out: Binding Constants (Kd), nM BRD4-BD2
[17] = target: T6, BRDT-BD2 (Homo sapiens, UniProt Q58F21); test: BROMOscan BromoKdELECT competition binding, BRDT-BD2; parameters: purchased Eurofins DiscoverX Corp
[18] = target: T5, BRD4-BD2; test: AlphaScreen competition assay with biotinylated JQ1, BRD4-BD2; type: binding; parameters: BD2, NP_055114.1 amino acid 333− 460; made in house; host or cells: E. coli NiCo21 (DE3)
[19] = target: T6, BRDT-BD2; test: AlphaScreen competition assay with biotinylated JQ1, BRDT-BD2; type: binding; parameters: BRDT-BD2, NP_001717.3 amino acid 269− 380; made in house; host or cells: E. coli NiCo21 (DE3); conditions: for BRDT-BD2 vs. BRD4-BD2: ratio of AlphaScreen IC50 values
[20] = tested on: BD2; parameters: method as in PMID 32193360; conditions: BD2-specific inhibitor; cited from earlier work
[21] = tested on: BRDT-BD1; remark: listed apart in the source
[22] = tested on: BRDT-BD2; remark: listed apart in the source
[23] = tested on: BRD4-BD1; remark: listed apart in the source
[24] = tested on: BRD4-BD2; remark: listed apart in the source
[25] = mice; cited from earlier work
[26] = mouse liver microsomes, 2.0 μM, 37 °C, data >60 min are an extrapolated estimate
[27] = human liver microsomes, 2.0 μM, 37 °C, data >60 min are an extrapolated estimate
[28] = AlphaScreen, biotinylated JQ1 as ligand

Structure (SMILES): CNC(=O)c1ccc(C(=O)Nc2cc(NC(=O)c3ccc4c(c3)c(-c3ccc(N)cc3C)nn4C)ccc2C)cc1 [Compound 9]
- half-life at 2 μM [1, 26]: 1.53 h
- mouse microsomal stability ([1]; result in words): greater stability in mouse liver microsomes (MLMs) over other hits
- half-life at 2 μM [2, 27]: 2.5 h
- human microsomal stability ([2]; result in words): high metabolic stability
- BROMOscan bromodomain profile [3]: very weak binding to two bromodomains outside of the BET subfamily

Structure (SMILES): CC(=O)Nc1cc(NC(=O)c2ccc3c(c2)c(-c2ccc(N)cc2C)nn3C)ccc1C [Compound 20]
- IC50 [4]: 8 nM
- IC50 [5]: > 10000 nM and 15800 nM
- IC50 [6]: 12 nM
- IC50 [7]: 10400 nM
- Kd [8]: 7.8 nM
- Kd [9]: 2 nM
- Kd [10]: 1.6 nM
- Kd [11]: 1.3 nM
- IC50 [12]: 15800 nM
- IC50 [13]: 10400 nM
- t1/2, min MLM [1, 26]: 1.2 h
- t1/2, min HLM [2, 27]: 6.17 h
- Kd [14]: 7.8 nM
- Kd [15]: 2 nM
- BROMOscan bromodomain profile [3]: potent and selective binding to only the second bromodomains within the BET subfamily
- Kd [16]: 1.6 nM
- more potent than JQ1 at binding BRDT-BD2 ([17]; BromoKdELECT dose-response curves): more than 20 fold
- Kd ([17]; BromoKdELECT dose-response, read-out: Binding Constants (Kd), nM BRDT-BD2): 1.3 nM
- BRD4-BD2 vs. BRD4-BD1 (BRD4-BD2 selectivity) [18]: 860
- IC50 [18, 28]: 12 nM
- BRDT-BD2 vs. BRDT-BD1 (BRDT-BD2 selectivity) [19]: 2,000
- IC50 [19, 28]: 8 nM
- BRDT-BD2 activity / affinity ([19]; AlphaScreen, result in words): no loss in activity
- BRDT-BD2 vs. BRD4-BD2 [19]: 1.5

Structure (SMILES): CC(=O)Nc1c(F)cc(C(=O)N[C@H]2CC[C@H](O)CC2)cc1O[C@@H](C)c1ccccc1 [GSK046]
- selectivity over BD1 [20]: > 300 fold

Structure (SMILES): Cc1sc2c(c1C)C(c1ccc(Cl)cc1)=N[C@@H](CC(=O)OC(C)(C)C)c1nnc(C)n1-2 [JQ1, reference compound]
- ΔTm at 25 µM [21]: 3.48 °C
- ΔTm at 25 µM [22]: 10.3 °C
- ΔTm at 25 µM [23]: 7.84 °C
- ΔTm at 25 µM [24]: 7.43 °C
- half-life at 2 μM [1, 26]: 0.25 h
- half-life at 2 μM [2, 27]: 0.1 h
- bioavailable across the blood-testis boundary [25]: 100%
- BRDT-BD2 vs. BRD4-BD2 [19]: 0.4
